From US20250019644A1, “Quantitatively Mapping Amino Acid Properties (QMAP) Cell Culture Media” (UNIVERSITY OF IOWA RESEARCH FOUNDATION, priority 2023, published 2025)

Key:
Type in all cases: cell-based, human
293T = experiment: CellTiter-Glo Luminescent Cell Viability Assay; settings: 2-fold dilution series, 48 hours, QMAP
Procedure: (§1) HT29, 293T, U2OS, and 3T3-LI cells were plated on an opaque 96-well plate in 1:1 DMEM. […] At the appropriate time point, 100 μl of CellTiter-Glo reagent (Promega #G7570) was added to each well. The plate was gently mixed for 2 minutes to induce lysis, incubated at room-temperature for 10 minutes, and then luminescence was measured.
(§2) To test whether tryptophan inhibition of growth applied to other cell lines and persisted in conventional cell culture media, two human cancer cell lines (HT29, U2OS), a transformed human embryonic kidney cell line (293T), and a mouse, fibroblast-like cell line (3T3-L1) were grown in DMEM for 24 hours and then treated with 2 mM tryptophan or vehicle. After 24 hours, cells were assayed by CellTiter-Glo, which indicates cell viability by measuring ATP production.

U2OS = experiment: CellTiter-Glo Luminescent Cell Viability Assay; settings: 2-fold dilution series, 48 hours, QMAP
Procedure: as §1
as §2, with “After 24 hours, cells were assayed by CellTiter-Glo, which indicates cell viability by measuring ATP production.” left out

HCT116 cells [1] = experiment: Activity metabolomics screen of tryptophan metabolites, GC-MS profiling; settings: 2 mM, 6 hours, QMAP
Procedure: (§3) 6-well plates were treated for 6 hours with 2 mM of the indicated tryptophan metabolite for 6 hours before media was quickly removed, and plates were washed 2× with ice-cold PBS and 2× with ice-cold water before being snap frozen with liquid nitrogen. Cell plates were lyophilized overnight before metabolite extraction. To extract metabolites, 1 ml of an extraction buffer composed of 2:2:1 methanol/acetonitrile/water with internal standards at 1 μg/ml each (D4-Citric Acid, 13C5-Glutamine, 13C5-Glutamic Acid, 13C6-Lysine, 13C5-Methionine, 13C3-Serine, D4-Succinic Acid, 13C11-Tryptophan, and D8-Valine; Cambridge Isotope Laboratories) was added to the lyophilized cell samples. Cells were scraped for 20 seconds and collected into Eppendorf tubes, flash-frozen in liquid nitrogen, and sonicated for 10 minutes.
(§4) Samples were then placed on a rotating platform at −20° C. for 1 hour and centrifuged at 4° C. for 10 minutes at 21,000×g. 300 μL of the cleared metabolite extracts were transferred to fresh tubes for additional processing. An equal volume of each extract was pooled to serve as a quality control (QC) sample, which was analyzed at the beginning, end, and at a regular interval throughout an instrument run. Extraction buffer alone was analyzed as a processing blank sample. Metabolite extracts, the quality control sample, and the processing blank were evaporated to dryness using a speed-vacuum.
The dried metabolite extracts, QC sample, and processing blank sample, were derivatized using methoxyamine hydrochloride (MOX) and N,O-Bis (trimethylsilyl) trifluoroacetamide (TMS) (Sigma). Briefly, dried extracts were reconstituted in 30 μL of 11.4 mg/ml MOX in anhydrous pyridine (VWR), vortexed for 10 minutes, and heated at 60° C. for 1 hour. Next, 20 μL TMS was added to each reconstituted extract, vortexed for 1 minute, and heated at 60° C. for 30 min. The derivatized metabolite extracts, blanks, and QC were immediately analyzed using GC/MS.
GC chromatographic separation was conducted on a Thermo Trace 1300 GC with a TraceGold TG-5SilMS column (0.25 μM film thickness; 0.25 mm ID; 30 m length). An injection volume of 1 μL was used for all samples, blanks, and QCs. The GC was operated in split mode with the following settings: 20:1 split ratio; split flow: […], purge flow: 5 mL/min, Carrier mode: Constant Flow, Carrier flow rate: 1.2 mL/min). The GC inlet temperature was 250° C. The GC oven temperature gradient was as follows: 80° C. for 3 min, ramped at 20° C./min to a maximum temperature of 280° C., which was held for 8 min. The injection syringe was washed 3 times with pyridine between each sample. Metabolites were detected using a Thermo ISQ single quadrupole mass spectrometer. The data was acquired from 3.90 to 21.00 min in EI mode (70eV) by single ion monitoring (SIM).
(§5) Acquired LC-MS and GC-MS data were processed using the Thermo Scientific TraceFinder software. Targeted metabolites were identified by matching accurate mass and retention times to the University of Iowa Metabolomics Core Facility's in-house library of confirmed standards. After peak area integration by TraceFinder, NOREVA software was applied for signal drift correction on a metabolite-to-metabolite basis using the pooled QC sample that had been analyzed throughout the instrument run. Within individual samples, Post-NOREVA metabolite levels were divided by the total metabolite load (sum of all metabolite values) to equally weight individual metabolites for comparison across samples.

HCT116 cells [2] = experiment: Metabolic profiling of tryptophan metabolite-treated cells, LC-MS; settings: 6 hours, QMAP
Procedure: as §3, with “6-well plates were treated for 6 hours with 2 mM of the indicated tryptophan metabolite for 6 hours before media was quickly removed, and plates were washed 2× with ice-cold PBS and 2× with ice-cold water before being snap frozen with liquid nitrogen.” left out
as §4
Dried extracts were reconstituted in 30 μL of acetonitrile/water (1:1, V/V), vortexed for 10 minutes, and incubated at −20° C. for 18 hours. Samples were then centrifuged at 4° C. for 2 minutes at 21,000×g and the supernatant was transferred to autosampler vials for analysis.
For LC chromatographic separation, 2 μL of reconstituted metabolite extracts, QC sample, and processing blank were run on a Millipore SeQuant ZIC-PHILIC (2.1×150 mm, 5 um particle size, Millipore Sigma #150460) column with a ZIC-PHILIC guard column (20×2.1 mm, Millipore Sigma #150437) attached to a Thermo Vanquish Flex UHPLC. The mobile phase comprised Buffer A [20 mM (NH4)2CO3, 0.1% NH4OH (v/v)] and Buffer B [acetonitrile]. The chromatographic gradient was run at a flow rate of 0.150 mL/min as follows: 0-20 min-linear gradient from 80 to 20% Buffer B; 20-20.5 min-linear gradient from 20 to 80% Buffer B; and 20.5-28 min-hold at 80% Buffer B. Data were acquired using a Thermo Q Exactive MS operated in full-scan, polarity-switching mode with a spray voltage set to 3.0 kV, the heated capillary held at 275° C., and the HESI probe held at 350° C. The sheath gas flow was set to 40 units, the auxiliary gas flow was set to 15 units, and the sweep gas flow was set to 1 unit. MS data acquisition was performed with polarity switching in a range of m/z 70-1,000, with the resolution set at 70,000, the AGC target at 10e6, and the maximum injection time at 200 ms. The QC sample was analyzed at the beginning and end of the LC-MS run and after every 10 samples.
as §5

HCT116 cells [3] = experiment: Screen 2: metabolic profiling with unlabeled amino acids (LC-MS); settings: 6 hours; for increase in intracellular relative abundance of the amino acid used for treatment: 2 mM dose, relative to untreated cells
Procedure: Media was changed to QMAP plus individual amino acid treatments at the start of the experiment. 200 mM amino acid stocks were used to make the QMAP+individual amino acid treatment medias that were placed in the tissue culture incubator for 30-45 minutes prior to the start of the dosing for equilibration of media bicarbonate with incubator CO2. For metabolomic profiling experiments, cells were treated with additional amino acid doses of 0.5, 1 and 2 mM, and 1 mM was used for stable isotope tracing experiments. To minimize systematic error, each amino acid dose was added as a batch (20 amino acids+vehicle control) such that each well of each plate contained a different amino acid. The process was repeated for the other two concentrations of amino acids on the next plates to make set. This was repeated four more times to achieve the sample size of 5 replicates for each of the 3 doses of amino acids. Each plate was then incubated for 6 hours in the tissue culture incubator before being rapidly washed twice with sterile water and snap frozen on liquid nitrogen before being stored at −80° C. The next day, the plates were lyophilized for 90 minutes and then stored at −80° C.
Extraction buffer was prepared by adding 2:2:1 methanol: acetonitrile: water. For profiling, the following internal standards (Cambridge Isotope Laboratories) were added at 1 μg/mL each: L-Valine-D8, L-Aspartate (^13C4, D3, ^15N) and Succinate (13C4D4). 6-well plates were removed from storage at −80° C. and 1 ml of ice-cold extraction buffer was added. Plates were incubated at −20° C. for 5 minutes, scraped, transferred to microcentrifuge tubes and frozen in liquid nitrogen. Tubes were then placed into a sonicating water bath for 10 minutes and rotated at −20° C. for 1 hour before being centrifuged at 4° C. for 10 minutes at 21,000×g. […] of extract was dried down completely using a speed-vacuum (˜90 min), dissolved in […] of acetonitrile: water (1:1), vortexed for 10 min, and stored overnight at −20° C. to allow protein precipitation. Samples were then centrifuged at 4° C. for 10 minutes at 21,000×g and the supernatants were transferred into autosampler vials for analysis. For the QCs, […] of each extract was pooled, at the step prior to drying down, mixed and dried in […] amounts alongside the samples. Once dried, QCs were processed with the samples but recombined prior to being aliquoted into autosampler vials. All samples were then frozen at −80° C., and only one set of samples, which included a QC aliquot, was thawed, vortexed and placed into the instrument.
The sheath gas flow was set to 40 units, the auxiliary gas flow was set to 15 units and the sweep gas flow was set to 1 unit. […] For tracing, […] of sample was injected twice in either positive or negative mode to maximize detection efficiency and minimize metabolite crowding using the Sim-mode.
LC-MS data was processed using the Thermo Scientific TraceFinder 5.1 software.
The three cell lines were then treated with 0.5, 1, and 2 mM of individual, unlabeled amino acids, and metabolic profiling was performed to determine how individual amino acids quantitatively altered metabolite abundance (Screen 2).

IDO1 mRNA = experiment: Quantitative PCR of IDO1 mRNA; settings: 50 ng/μL for 24 hours, HCT116

Nc1c(O)cccc1C(=O)CC(N)C(=O)O (stereo not shown) [3HK, 3-hydroxykynurenine]
cell viability (293T): dose-dependent decrease
cell viability (U2OS): dose-dependent decrease
aconitate level (HCT116 cells [1]): significantly increased
citrate level (HCT116 cells [1]): significantly increased
disruption of TCA cycle metabolites (HCT116 cells [1]): more potent disruption than the other tryptophan metabolites
distal TCA cycle metabolites (HCT116 cells [1]): drastically and significantly decreased
glucose 6-phosphate level (HCT116 cells [1]): Significantly increased
ribose 5-phosphate level (HCT116 cells [1]): Significantly increased
ribulose 5-phosphate level (HCT116 cells [1]): Significantly increased
increase of xanthommatin (HCT116 cells [2]; 2 mM dose): ~70 fold
oxidized glutathione (GSSG) level (HCT116 cells [2]; 2 mM): significantly decreased
reduced glutathione (GSH) level (HCT116 cells [2]; 2 mM): significantly decreased

NC(=O)CC[C@H](N)C(=O)O [glutamine, L-glutamine]
increase in intracellular relative abundance of the amino acid used for treatment (HCT116 cells [3]; HCT116 cells): ~80 fold
TCA cycle intermediates (HCT116 cells [3]; 0.5, 1, 2 mM): increased

N[C@@H](CCC(=O)O)C(=O)O [glutamate, L-glutamic acid]
increase in intracellular relative abundance of the amino acid used for treatment (HCT116 cells [3]; HCT116 cells): 1.25 fold
TCA cycle intermediates (HCT116 cells [3]; 0.5, 1, 2 mM): increased

N[C@@H](CO)C(=O)O [serine, L-serine]
glycine levels (HCT116 cells [3]; 0.5, 1, 2 mM, HCT116 cells): did not increase

NCC(=O)O [glycine, L-glycine]
serine level (HCT116 cells [3]; 0.5, 1, 2 mM, HCT116 cells): proportional, dose-dependent increase

B1: IFN-γ: the known IDO potentiator IFN-γ (protein, UniProt P01579 24-161, looked up)
Interferon gamma: QDPYVKEAENLKKYFNAGHSDVADNGTLFLGILKNWKEESDRKIMQSQIVSFYFKLFKNFKDDQSIQKSVETIKEDMNVKFFNSNKKKRDDFEKLTNYSVTDLNVQRKAIHELIQVMAELSPAAKTGKRKRSQMLFRG
IDO1 mRNA (IDO1 mRNA): increased
